Test results: US11400089B2, “Multikinase inhibitors and uses in reproductive and digestive tract fibrosis” (AIVIVA BIOPHARMA, INC., priority 2017, dated 2022)

Columns and labels:
[1] = tested on: testosterone and phenylephrine induced benign prostate hyperplasia; experiment: testosterone and phenylephrine induced benign prostate hyperplasia in rats (Example 3); type: in vivo, Male Wistar rats; settings: for inhibition of cellular proliferation in testosterone/phenylephrine induced benign prostate hyperplasia model: 1% intra-prostate days 1 and 18, rat; for epithelial (glandular) hyperplasia score, dorsolateral prostate, representative image / epithelial (glandular) hyperplasia score, ventral prostate, representative image: TE+PE induced rats, intra-prostate 0.4 ml days 1 and 18, day 32, induced vehicle score=4; for epithelial (glandular) hyperplasia score, dorsolateral prostate, representative image: grade 0 (not present) to 5 (severe), FIG. 4; for epithelial (glandular) hyperplasia score, ventral prostate, representative image: grade 0 to 5, FIG. 5
Description: This study was conducted to determine the effects of multikinase inhibitors and vehicle on testosterone and phenylephrine induced benign prostate hyperplasia in rats. Male Wistar rats were induced with testosterone (2 mg/kg) plus phenylephrine (5 mg/kg) administered daily by subcutaneous injection on days 5 through 32. Vehicle or test compounds (all 1% w/v), nintedanib, sunitinib or lenvatinib and doxazosin mesylate, were administered by intra-prostate injection (0.4 ml) in dorsolateral and ventral lobes on days 1 and 18. Animals were euthanized on day 32.
At necropsy, the ventral and dorsolateral lobes of the prostate were separated and then cut into halves. The left halves were fixed in 10% neutral buffered formalin, sectioned, and stained with Hematoxylin and Eosin (H&E). Histological changes in these sections were scored. Epithelial hyperplasia was recognized as an increase in epithelial cells within normal-appearing gland profiles, primarily reflected by stratification of epithelial cells and increased presence of epithelial tufting and papillary projections. A severity grade of 0 (not present) through 5 (severe) was assigned to each sample.

[2] = tested on: suture induced ocular fibrosis; experiment: suture induced ocular fibrosis model in rabbits (Example 4); type: in vivo; settings: for areas of neovascularization on the corneal surface: 0.3% topical 35 μL/eye three times daily for 10 days, FIG. 8; for fibroplasia and/or collagen density (histological staining) / alpha SMA staining (immunohistochemical analysis): 0.3% topical three times daily for 10 days, FIG. 9; for fibroplasia and/or collagen density (histological staining): Day 11; for alpha SMA staining (immunohistochemical analysis): relative to vehicle
Description: A study was conducted to determine the potential beneficial effects of topical administration of test compounds and vehicle in a suture induced ocular fibrosis model in rabbits. Sutures were placed intrastromally, under a microscope, in the cornea of rabbits. In each eye, one 9.0 silk suture was placed, in a vertical position, temporal to the center of the cornea and a second suture was placed nasal to the corneal center. Each suture had two stromal incursions approximately 2 mm from the limbus. Test compounds having a certain spectrum of multikinase inhibition activities or vehicle were topically instilled (35 μL/eye) in the eyes three times daily for 10 days following the day of surgery. The treatment groups include vehicle, axitinib (0.3%), nintedanib (0.3%), pirfenidone (1%), riociguat (0.3%), sorafenib (0.3%) and lenvatinib (0.3%). Six left eyes were used per treatment group.
During the in-life phase, gross ocular observations of very slight to moderate conjunctival congestion and swelling were similar among groups, including the vehicle control. The animals were sacrificed on Day 11 and eyes enucleated and dissected for histopathological evaluation.

[3] = tested on: full-thickness dermal wounds; experiment: full-thickness dermal wounds in rabbit ear, histopathology (Example 5); type: in vivo, New Zealand White rabbits; parameters: average total score of test wounds lower than untreated/control wounds by / Neovascularization (histopathology score, treated mean) / Fibrosis/Collagen (histopathology score, treated mean) / Reepithelialization (histopathology score, treated mean) / Total Score (histopathology, treated mean): scale not given here; settings: for Fibrosis/Collagen (histopathology score, treated mean) / Neovascularization (histopathology score, treated mean) / Reepithelialization (histopathology score, treated mean) / Total Score (histopathology, treated mean): 1% intradermal dosing days 15 and 29, Day 42; for average total score of test wounds lower than untreated/control wounds by: difference treated vs control
Description: Test compounds were examined in full-thickness dermal wounds in rabbits. Seven male New Zealand White rabbits, ranging in body weight from 3.03 to 3.40 kg were used in this study. Four wounds were placed on the ventral surface of both ears using an 8 mm skin punch biopsy. Axitinib (1.0%), nintedanib (1.0%), lenvatinib (1.0%), sorafenib (1.0%) and sunitinib (1.0%) were administered by intradermal or intralesional injection on days 15 and 29 following surgery. Animals were euthanized on Day 42 and trauma sites were harvested and divided in half. One half was preserved in formalin for histological examination and the other half frozen for TGF beta analysis. Tissue H&E staining was evaluated semi-quantitatively for inflammation and neovascularization. Tissue fibrosis and collagen organization were evaluated by Mason's trichrome staining. Scores for four intradermal sites receiving test articles were averaged for each rabbit. Most scar tissues were composed of neovascularization, fibroblast hyperplasia, collagen disorganization and re-epithelialization.

TGF beta mRNA expression = TGF beta mRNA expression in rabbit dermal wound model (Example 5); type: in vivo, New Zealand White rabbits; settings: 1% intradermal days 15 and 29; Day 42; FIG. 10
Description: Test compounds were examined in full-thickness dermal wounds in rabbits. Seven male New Zealand White rabbits, ranging in body weight from 3.03 to 3.40 kg were used in this study. Four wounds were placed on the ventral surface of both ears using an 8 mm skin punch biopsy. Axitinib (1.0%), nintedanib (1.0%), lenvatinib (1.0%), sorafenib (1.0%) and sunitinib (1.0%) were administered by intradermal or intralesional injection on days 15 and 29 following surgery. Animals were euthanized on Day 42 and trauma sites were harvested and divided in half. One half was preserved in formalin for histological examination and the other half frozen for TGF beta analysis.
TGF beta mRNA expression in treated trauma samples was compared to expression in untreated samples. In general, TGF beta expression in treated samples was lower relative to untreated trauma samples.

[4] = tested on: TGF beta 1 protein levels; experiment: TGF beta 1 protein level (ELISA) in pig linear incision wound model (Example 6); type: in vivo, Gottingen minipigs; settings: 16 mg per wound site intradermal; Days 4, 7 and 9; FIG. 11
Description: Full-thickness linear incision wounds were created in Gottingen minipigs on Day 1. 10 wounds approximately 3 cm in length and spaced at least 5 cm apart were created on the dorsal surface of the animals, perpendicular to the spine. Test agents included nintedanib (2%), lenvatinib (2%), sorafenib (1%), axitinib (2%) and vehicle control. Test agents were administered by intradermal injection immediately after wound creation. The dose of nintedanib, lenvatinib, sorafenib, or axitinib was 16 mg per wound site. Three minipigs were dosed in a similar manner. One minipig was sacrificed on Day 4, one on Day 7, and one on Day 9.
At the time of sacrifice, two dermal punch biopsies (4 mm) from each side of the wound sites were collected. Two biopsies were flash frozen in liquid nitrogen and stored at −80° C. prior to processing by protein extraction and ELISA (enzyme-linked immunosorbent assay) analysis. TGF beta protein levels were measured on Days 4, 7 and 9.

[5] = tested on: LL37-induced inflammation; experiment: intradermal LL37 injection-induced inflammation model in mice, histopathology (Example 7); type: in vivo; settings: single intradermal injection 1.6 mg, FIG. 13
Description: (§1) In our study, mice were injected subcutaneously with 40 μL of LL-37 (3.3 mg/mL) to induce inflammatory reactions. Immediately following the LL-37 injection, axitinib, nintedanib, and lenvatinib were individually administered as a single intradermal injection (1.6 mg). LL-37 injection was repeated every 12 hours for a total of 4 injections. Endotoxin-free water and dexamethasone (3 mg/kg by intraperitoneal injection, twice), respectively, were used as negative and positive control groups.
At 48 hours after the initial LL-37 injection, the dorsal skin was photographed, and the severity of skin lesions were scored for redness and measured for areas of involvement.
The tissue samples were analyzed for inflammation characteristics. Histopathology endpoints included inflammation, and CD4+ and CD8+ T-lymphocyte immunostaining. For inflammation scores, tissues were examined histologically and scored for inflammatory cell infiltrate.

TGFb-1 mRNA expression = experiment: TGFb1 mRNA expression in LL37-induced mice (Example 7); type: in vivo; settings: single intradermal injection 1.6 mg, FIG. 12
Description: as §1
The TGFb1 mRNA expression in mice induced with LL37 and treated with lenvatinib was 79% of that challenged with LL37 alone (i.e., without treatment).

[6] = 1% intradermal, rabbit ear wound

Row | SMILES | inhibition of cellular proliferation in testosterone/phenylephrine induced benign prostate hyperplasia model [1] | epithelial (glandular) hyperplasia score, dorsolateral prostate, representative image [1] | epithelial (glandular) hyperplasia score, ventral prostate, representative image [1] | areas of neovascularization on the corneal surface [2] | fibroplasia and/or collagen density (histological staining) [2] | alpha SMA staining (immunohistochemical analysis) [2] | Fibrosis/Collagen (histopathology score, treated mean) ([3]; rabbit ear wound) | Neovascularization (histopathology score, treated mean) ([3]; rabbit ear wound) | Reepithelialization (histopathology score, treated mean) ([3]; rabbit ear wound) | Total Score (histopathology, treated mean) ([3]; rabbit ear wound) | average total score of test wounds lower than untreated/control wounds by ([3]; 1% intradermal) | angiogenesis and fibrosis at treated trauma sites (histopathology summary) [3, 6] | fibrosis compared with control wound sites [3, 6] | mean folds of TGF beta mRNA expression vs untreated trauma samples (TGF beta mRNA expression) | TGF beta 1 protein levels in wound [4] | inflammation scores (inflammatory cell infiltrate) [5] | TGFb1 mRNA expression relative to LL37 alone (without treatment) (TGFb-1 mRNA expression) | TGFb-1 mRNA expression among all treatment groups (TGFb-1 mRNA expression) | neovascularization compared with untreated wounds [3, 6] | scar formation overall compared with control sites [3, 6]
1 | COc1cc2nccc(Oc3ccc(NC(=O)NC4CC4)c(Cl)c3)c2cc1C(N)=O [lenvatinib] | effective inhibitors of cellular proliferation | 2 | 3 | efficacious in reducing the areas of neovascularization | significantly reduced fibroplasia and/or collagen density | significantly reduced alpha SMA staining | 2.5 | 2 | 0 | 4.5 | 0.5 | decreased angiogenesis and fibrosis | decreased fibrosis compared to control wound sites | lower than the expression level in untreated trauma samples | time-dependent inhibition of TGF beta 1 protein levels | prominent reductions in the scores of inflammation | 79% | lowest TGFb-1 mRNA expression | – | –
2 | COC(=O)c1ccc2c(c1)NC(=O)/C2=C(\Nc1ccc(N(C)C(=O)CN2CCN(C)CC2)cc1)c1ccccc1 [nintedanib] | effective inhibitors of cellular proliferation | 3 | 3 | efficacious in reducing the areas of neovascularization | significantly reduced fibroplasia and/or collagen density | significantly reduced alpha SMA staining | 3 | 1 | 0.5 | 4.5 | 1.5 | decreased angiogenesis and fibrosis | about the same fibrosis as untreated wounds | lower than the expression level in untreated trauma samples | time-dependent inhibition of TGF beta 1 protein levels | prominent reductions in the scores of inflammation | – | – | much less neovascularization | less scar formation compared with the control sites
